Experimental data published in ChEMBL document CHEMBL6071196, “Semisynthetic Tetramate-Containing Fungal Metabolites with Activity against Trichomonas vaginalis and Mycoplasma genitalium” (ACS Med Chem Lett, 2024).
≈ marks a conversion by molar mass, not a printed value.

How the values were obtained:
[1] = Selectivity index, ratio of IC50 for cytotoxicity against african green monkey Vero cells incubated for 48 hrs by celltiter blue assay to MIC for antibacterial activity against Mycoplasma genitalium G37C assessed as bacterial growth inhibition incubated for 7 days by phenol red reagent based microbroth dilution assay; assay type: toxicity, cell-based; details: read-out: Selectivity Index
Mycoplasma genitalium = assay: Antibacterial activity against Mycoplasma genitalium G37C assessed as bacterial growth inhibition incubated for 7 days by phenol red reagent based microbroth dilution assay; assay type: functional; details: Mycoplasmoides genitalium, 168 h, time 7 day
Trichomonas vaginalis = assay: Anti-trichomonal activity against Trichomonas vaginalis assessed as inhibition of parasite growth incubated for 18 hrs; assay type: functional, organism-based
[2] = Selectivity index, ratio of IC50 for cytotoxicity against african green monkey Vero cells incubated for 48 hrs by celltiter blue assay to EC50 for anti-trichomonal activity against Trichomonas vaginalis assessed as inhibition of parasite growth incubated for 18 hrs; assay type: toxicity, cell-based; details: read-out: Ratio IC50/EC50

Compound	selectivity ratio at 48 h [1]	MIC90 (Mycoplasma genitalium)	EC50 (Trichomonas vaginalis)	selectivity ratio at 48 h [2]
C/C=C/[C@@H]1C=C[C@@H]2C[C@H](C)CC[C@H]2[C@]1(C)/C(O)=C1/C(=O)N[C@@H](CO)C1=O	40	2.2 µM (≈ 0.791 µg/mL)	2.5 µM	35.9
C/C=C/C=C/[C@H]1C(C)=C[C@H]2C[C@@H](C)CC[C@@H]2[C@@]1(C)/C(O)=C1\C(=O)[C@@H](COCc2cn(Cc3cc(C)cc(C)c3)nn2)N(C)C1=O	–	20.4 µM (≈ 12.5 µg/mL)	> 10 µM	–
C/C=C/C=C/[C@H]1C(C)=C[C@H]2C[C@@H](C)CC[C@@H]2[C@@]1(C)/C(O)=C1\C(=O)[C@@H](COC(C)=O)N(C)C1=O	–	12.5 µM (≈ 5.69 µg/mL)	> 10 µM	–
C/C=C/C=C/[C@H]1C(C)=C[C@H]2C[C@@H](C)CC[C@@H]2[C@@]1(C)/C(O)=C1\C(=O)[C@H](COCc2cn(Cc3ccc(C(=O)O)cc3)nn2)N(C)C1=O	–	> 25 µM	7.5 µM	–
CC1=C[C@H]2C[C@@H](C)CC[C@@H]2[C@@](C)(/C(O)=C2\C(=O)[C@H](COCc3cn(CC4CCCCO4)nn3)N(C)C2=O)[C@H]1/C=C/C=C/C[C@@H](C)O (stereo partly specified)	–	–	–	19.6
CC1=C[C@H]2C[C@@H](C)CC[C@@H]2[C@@](C)(/C(O)=C2\C(=O)[C@H](CO)N(C)C2=O)[C@H]1/C=C/C=C/C[C@@H](C)O	–	6.8 µM (≈ 3.11 µg/mL)	> 10 µM	–
C/C=C/C=C/[C@H]1C(C)=C[C@H]2C[C@@H](C)CC[C@@H]2[C@@]1(C)[C@@H](O)[C@H]1C(=O)N(C)[C@H](CO)[C@H]1O	–	30.1 µM (≈ 12.6 µg/mL)	> 10 µM	–
C/C=C/C=C/[C@H]1C(C)=C[C@H]2C[C@@H](C)CC[C@@H]2[C@@]1(C)/C(O)=C1\C(=O)[C@H](COCc2cn(CCCCC)nn2)N(C)C1=O	–	22.1 µM (≈ 12.5 µg/mL)	> 10 µM	–
CC1=C[C@H]2C[C@@H](C)CC[C@@H]2[C@@](C)(/C(O)=C2\C(=O)[C@@H](COCc3cn(CC4CCCCO4)nn3)N(C)C2=O)[C@H]1/C=C/C=C/C[C@@H](C)O (stereo partly specified)	–	19.6 µM (≈ 12.5 µg/mL)	> 10 µM	–
CC1=C[C@H]2C[C@@H](C)CC[C@@H]2[C@@](C)(/C(O)=C2\C(=O)[C@@H](COCc3cn(CCO)nn3)N(C)C2=O)[C@H]1/C=C/C=C/C[C@@H](C)O	6.5	10.8 µM (≈ 6.29 µg/mL)	> 10 µM	–
CC1=C[C@H]2C[C@@H](C)CC[C@@H]2[C@@](C)(/C(O)=C2\C(=O)[C@H](COCc3cn(Cc4ccc(C(=O)O)cc4)nn3)N(C)C2=O)[C@H]1/C=C/C=C/C[C@@H](C)O	–	> 37 µM	> 10 µM	–
C/C=C/C=C/[C@H]1C(C)=C[C@H]2C[C@@H](C)CC[C@@H]2[C@@]1(C)/C(O)=C1\C(=O)[C@H](COCc2cn(CCO)nn2)N(C)C1=O	9.7	5.8 µM (≈ 3.12 µg/mL)	> 10 µM	–
C/C=C/C=C/[C@H]1C(C)=C[C@H]2C[C@@H](C)CC[C@@H]2[C@@]1(C)/C(O)=C1\C(=O)[C@H](COCc2cn(CC3CCCC3)nn2)N(C)C1=O	7.9	5.4 µM (≈ 3.11 µg/mL)	> 10 µM	–
C/C=C/C=C/[C@H]1C(C)=C[C@H]2C[C@@H](C)CC[C@@H]2[C@@]1(C)/C(O)=C1\C(=O)[C@@H](COCc2cn(CCCO)nn2)N(C)C1=O	–	22.6 µM (≈ 12.5 µg/mL)	> 10 µM	–
C/C=C/C=C/[C@H]1C(C)=C[C@H]2C[C@@H](C)CC[C@@H]2[C@@]1(C)/C(O)=C1\C(=O)[C@H](CO)N(C)C1=O	–	25 µM (≈ 10.3 µg/mL)	> 10 µM	–
C/C=C/C=C/[C@H]1C(C)=C[C@H]2C[C@@H](C)CC[C@@H]2[C@@]1(C)/C(O)=C1\C(=O)[C@@H](COCC=C(C)C)N(C)C1=O	8.8	6.4 µM (≈ 3.08 µg/mL)	> 10 µM	–
CC1=C[C@H]2C[C@@H](C)CC[C@@H]2[C@@](C)(/C(O)=C2\C(=O)[C@@H](CO)N(C)C2=O)[C@H]1/C=C/[C@H](O)[C@H](C)O	–	> 50 µM	> 10 µM	–
C#CCOC[C@@H]1C(=O)/C(=C(/O)[C@@]2(C)[C@@H](/C=C/C=C/C)C(C)=C[C@H]3C[C@@H](C)CC[C@@H]32)C(=O)N1C	–	14 µM (≈ 6.32 µg/mL)	> 10 µM	–
C/C=C/C=C/[C@H]1C(C)=C[C@H]2C[C@@H](C)CC[C@@H]2[C@@]1(C)/C(O)=C1\C(=O)[C@@H](COCc2ccccc2)N(C)C1=O	–	24.8 µM (≈ 12.5 µg/mL)	> 10 µM	–
C/C=C/C=C/[C@H]1C(C)=C[C@H]2C[C@@H](C)CC[C@@H]2[C@@]1(C)/C(O)=C1\C(=O)[C@@H](COCc2cn(CCO)nn2)N(C)C1=O	–	23.2 µM (≈ 12.5 µg/mL)	> 10 µM	–
C/C=C/[C@@H]1C=C[C@@H]2C[C@H](C)CC[C@H]2[C@]1(C)/C(O)=C1\C(=O)[C@@H](CO)N(C)C1=O	11.5	2.1 µM (≈ 0.784 µg/mL)	> 10 µM	–
C/C=C/C=C/[C@H]1C(C)=C[C@H]2C[C@@H](C)CC[C@@H]2[C@@]1(C)/C(O)=C1\C(=O)[C@@H](COC)N(C)C1=O	6.7	3.7 µM (≈ 1.58 µg/mL)	> 10 µM	–

Compound	selectivity ratio at 48 h [1]	MIC90 (Mycoplasma genitalium)	EC50 (Trichomonas vaginalis)	selectivity ratio at 48 h [2]
C/C=C/C=C/[C@H]1C(C)=C[C@H]2C[C@@H](C)CC[C@@H]2[C@@]1(C)C(=O)[C@H]1C(=O)N(C)[C@H](CO)[C@H]1O	2.8	7.5 µM (≈ 3.12 µg/mL)	> 10 µM	–
CC1=C[C@H]2C[C@@H](C)CC[C@@H]2[C@@](C)(/C(O)=C2\C(=O)[C@@H](CO)N(C)C2=O)[C@H]1/C=C/[C@@H](O)[C@@H](C)O	–	12.5 µM (≈ 5.59 µg/mL)	> 10 µM	–
C/C=C/C=C/[C@H]1C(C)=C[C@H]2C[C@@H](C)CC[C@@H]2[C@@]1(C)/C(O)=C1\C(=O)[C@H](COCc2cn(CCCCO)nn2)N(C)C1=O	–	22.1 µM (≈ 12.5 µg/mL)	> 10 µM	–
C/C=C/C=C/[C@H]1C(C)=C[C@H]2C[C@@H](C)CC[C@@H]2[C@@]1(C)/C(O)=C1\C(=O)[C@@H](COCc2cn(CC3CCCO3)nn2)N(C)C1=O (stereo partly specified)	–	12.5 µM (≈ 7.23 µg/mL)	5.4 µM	–
C/C=C/C=C/[C@H]1C(C)=C[C@H]2C[C@@H](C)CC[C@@H]2[C@@]1(C)/C(O)=C1\C(=O)[C@H](COCc2cn(CCCO)nn2)N(C)C1=O	–	22.6 µM (≈ 12.5 µg/mL)	> 10 µM	–
C/C=C/C=C/[C@H]1C(C)=C[C@H]2C[C@@H](C)CC[C@@H]2[C@@]1(C)/C(O)=C1/C(=O)N[C@@H](CO)C1=O	–	62.6 µM (≈ 25 µg/mL)	> 10 µM	–
C/C=C/C=C/[C@H]1C(C)=C[C@H]2C[C@@H](C)CC[C@@H]2[C@@]1(C)/C(O)=C1\C(=O)[C@@H](COCc2cn(CCc3ccc(O)cc3)nn2)N(C)C1=O	6.1	5 µM (≈ 3.07 µg/mL)	> 10 µM	–
C/C=C/C=C/[C@H]1C(C)=C[C@H]2C[C@@H](C)CC[C@@H]2[C@@]1(C)/C(O)=C1\C(=O)[C@H](COCc2cn(Cc3c[nH]c4ccccc34)nn2)N(C)C1=O	2.5	9.9 µM (≈ 6.18 µg/mL)	> 10 µM	–
CC1=C[C@H]2C[C@@H](C)CC[C@@H]2[C@@](C)(/C(O)=C2\C(=O)[C@@H](COCc3cn(Cc4ccc(C(=O)O)cc4)nn3)N(C)C2=O)[C@H]1/C=C/C=C/C[C@@H](C)O	–	37 µM (≈ 24.9 µg/mL)	> 10 µM	–
CC1=C[C@H]2C[C@@H](C)CC[C@@H]2[C@@](C)(/C(O)=C2\C(=O)[C@H](COCc3cn(CCO)nn3)N(C)C2=O)[C@H]1/C=C/C=C/C[C@@H](C)O	–	> 40 µM	> 10 µM	–
C/C=C/C=C/[C@H]1C(C)=C[C@H]2C[C@@H](C)CC[C@@H]2[C@@]1(C)/C(O)=C1\C(=O)[C@H](COCc2cn(Cc3cc(C)cc(C)c3)nn2)N(C)C1=O	–	20.4 µM (≈ 12.5 µg/mL)	> 10 µM	–
C/C=C/C=C/[C@H]1C(C)=C[C@H]2C[C@@H](C)CC[C@@H]2[C@@]1(C)/C(O)=C1\C(=O)[C@@H](COCc2cn(CCCCO)nn2)N(C)C1=O	–	11.1 µM (≈ 6.29 µg/mL)	> 10 µM	–
C/C=C/C=C/[C@H]1C(C)=C[C@H]2C[C@@H](C)CC[C@@H]2[C@@]1(C)/C(O)=C1\C(=O)[C@@H](COCc2cn(CC3CCCCO3)nn2)N(C)C1=O (stereo partly specified)	8.1	5.2 µM (≈ 3.08 µg/mL)	> 10 µM	–
C/C=C/C=C/[C@H]1C(C)=C[C@H]2C[C@@H](C)CC[C@@H]2[C@@]1(C)/C(O)=C1\C(=O)[C@H](COCc2cn(CC3CCCO3)nn2)N(C)C1=O (stereo partly specified)	–	12.5 µM (≈ 7.23 µg/mL)	> 10 µM	–
C/C=C/C=C/[C@H]1C(C)=C[C@H]2C[C@@H](C)CC[C@@H]2[C@@]1(C)/C(O)=C1\C(=O)[C@@H](COCc2cn(CCCCC)nn2)N(C)C1=O	–	22.1 µM (≈ 12.5 µg/mL)	> 10 µM	–
C/C=C/C=C/[C@H]1C(C)=C[C@H]2C[C@@H](C)CC[C@@H]2[C@@]1(C)/C(O)=C1\C(=O)[C@@H](COCc2cn(CC3CCCC3)nn2)N(C)C1=O	–	10.9 µM (≈ 6.29 µg/mL)	> 10 µM	–
CC1=C[C@H]2C[C@@H](C)CC[C@@H]2[C@@](C)(/C(O)=C2\C(=O)[C@@H](COCc3cn(CCc4ccc(O)cc4)nn3)N(C)C2=O)[C@H]1/C=C/C=C/C[C@@H](C)O	–	38.8 µM (≈ 25.6 µg/mL)	5.4 µM	–
C/C=C/C=C/[C@H]1C(C)=C[C@H]2C[C@@H](C)CC[C@@H]2[C@@]1(C)/C(O)=C1\C(=O)[C@H](COCc2cn(CC3CCCCO3)nn2)N(C)C1=O (stereo partly specified)	4.4	5.2 µM (≈ 3.08 µg/mL)	> 10 µM	–
C/C=C/C=C/[C@H]1C(C)=C[C@H]2C[C@@H](C)CC[C@@H]2[C@@]1(C)/C(O)=C1\C(=O)[C@@H](COCc2cn(Cc3c[nH]c4ccccc34)nn2)N(C)C1=O	17.9	4.9 µM (≈ 3.06 µg/mL)	> 10 µM	–
C#CCOC[C@@H]1C(=O)/C(=C(/O)[C@@]2(C)[C@@H](/C=C/C=C/C[C@@H](C)OCC#C)C(C)=C[C@H]3C[C@@H](C)CC[C@@H]32)C(=O)N1C	14	5.8 µM (≈ 3.1 µg/mL)	> 10 µM	–
CC1=C[C@H]2C[C@@H](C)CC[C@@H]2[C@@](C)(/C(O)=C2\C(=O)[C@H](COCc3cn(CCc4ccc(O)cc4)nn3)N(C)C2=O)[C@H]1/C=C/C=C/C[C@@H](C)O	12.1	9.8 µM (≈ 6.46 µg/mL)	> 10 µM	–
